Results taken from patent EP2292587A1, “PHARMACEUTICAL COMPOSITION FOR INHIBITING THE TRANSCRIPTION FACTOR INDUCIBLE BY HYPOXIA, MODULATORS OF PATHOLOGICAL PROCESSES OF ANGIOGENESIS, ONCOGENESIS, INFLAMMATION, APOPTOSIS, AND CELLULAR THERAPY” (Fundacion De La Comunidad Valenciana Centro De …, priority 2008, dated 2009).

Tests used:
[1] = test system: human dental pulp stem cells; test: Annexin V/PI apoptosis and death in dental pulp stem cells; type: cell-based
Description: The apoptosis studies were conducted from cell cultures subjected to normoxic and hypoxic conditions in the presence and absence of the compound at 0.5 µM. The presence of phosphatidylserine in the outer part of the plasma membrane, characteristic of apoptotic processes, was detected using Annexin V (fluorescent dye Annexin V-FITC Apoptosis Detection Kit (BD Pharmingen, BD Biosciences) according to the manufacturer's instructions. The cells subjected to the different conditions were incubated with Annexin V for 30 minutes at 4°C. The cells were then incubated with propidium iodide (PI) and analyzed in a FACScalibur flow cytometer ([…]). PI-/AnnexinV+ cells were defined as early apoptotic cells, PI+/AnnexinV+ cells as late apoptotic cells and PI+/AnnexinV- cells as dead cells. Therefore, the number of total apoptotic cells will be the sum of early and late apoptotic cells.

[2] = test system: HCT116/p53-/- cells; test: cell cycle distribution by flow cytometry, HCT116/p53-/-; type: cell-based, human; settings: 0.5, 1, 5, 10 µM, 3 or 6 days
Excerpt: It was investigated if the activation of DDR by FM19G11 caused a delay in the cycle progress through the G1/S phases in HCT116 tumor cells, as has been described for other DNA-damaging agents (.Lim, DS, Kim, ST, Xu, B, Maser, RS, Lin, J, Petrini, JH et al., (2000) ATM phosphorylates p95/nbs1 in an S-phase checkpoint pathway. Nature 404: 613-7.; Jazayeri, A, Falck, J, Lukas, C, Bartek, J, Smith, GC, Lukas, J et al., (2006) ATM- and cell cycle-dependent regulation of ATR in response to DNA double-strand breaks. Nat Cell Biol 8: 37-45; Liu, JS, Kuo, SR, Beerman, TA and Melendy, T, (2003) Induction of DNA damage responses by adozelesin is S phase-specific and dependent on active replication forks. Mol Cancer Ther 2: 41-7; Ranjan, P and Heintz, NH, (2006) S-phase arrest by reactive nitrogen species is bypassed by okadaic acid, an inhibitor of protein phosphatases PP1/PP2A. Free Radic Biol Med 40: 247-59.). The HCT116 p53+/+ and HCT116 p53-/- cells were exposed for 3 or 6 days to the carrier (DMSO) or to FM19G11 (0.5, 1, 5, 10 µM). […] (Figure 24).
A- The HCT116/p53+/+ cells and B-HCT116/p53-/- cells were exposed to different concentrations of FM19G11 (0.5, 1, 5, 10 µM) or carrier for 3 or 6 days to analyze the distribution of cells in the different cell cycle phases by means of flow cytometry. […]

[3] = test system: mTOR; test: activation kinetics of mTOR signaling pathway, HCT116/p53-/-; type: cell-based, human; settings: 0.5 µM
Description: Due to the crucial role of p53 as a tumor-suppressing agent, it was analyzed in HCT116 cells how FM19G11 affected the activation kinetics of proteins involved in favoring cell cycle progress, specifically the mTOR cell signaling pathway. An increase of cell progress can be due to replicative stress which generates DNA damage (Bartkova, J, Horejsi, Z, Koed, K, Kramer, A, Tort, F, Zieger, K et al., (2005) DNA damage response as a candidate anti-cancer barrier in early human tumorigenesis. Nature 434: 864-70; Bartkova, J, Rezaei, N, Liontos, M, Karakaidos, P, Kletsas, D, Issaeva, N et al., (2006) Oncogene-induced senescence is part of the tumorigenesis barrier imposed by DNA damage checkpoints. Nature 444: 633-7; Di Micco, R, Fumagalli, M, Cicalese, A, Piccinin, S, Gasparini, P, Luise, C et al., (2006) Oncogene-induced senescence is a DNA damage response triggered by DNA hyper-replication. Nature 444: 638-42), it was explored if the DDR triggered by FM19G11 was related to an increase of the cell cycle progress signal modulated by the mTOR signaling pathway. […]

[4] = test system: HCT116/p53-/-; test: clonicity assay, HCT116/p53-/-; type: cell-based, human
Description: Clonicity assays were conducted to determine the toxicity of FM19G11 in p53-proficient (HT29 and HCT116/p53^+/+) and p53-deficient (HCT116/p53^-/-) tumor cells. Once the HT-29, HCT116/p53^+/+ and HCT116/p53^-/- cells were adhered to the culture plate, they were stimulated with increasing concentrations of FM19G11 (0.5, 1, 5, 10, 20, 50 µM) for 72 hours. After 10 days of stimulation, the number of colonies formed in the plates of treated and untreated cells was determined.
Results of the clonicity assays of HT29 human colon cancer cells, HCT116 cells treated with FM19G11 were monitored up to 10 after the treatment (Figure 28). The IC50 was determined by extrapolating the percentage with the concentration. FM19G11 was used at concentrations: 0.5, 1, 5, 10, 50, 100, 200 µM

## Cc1ccc(C(=O)COC(=O)c2cccc(NC(=O)c3ccc([N+](=O)[O-])cc3[N+](=O)[O-])c2)cc1 [FM19G11, 2-oxo-2-(p-tolyl)ethyl 3-((2,4-dinitro)benzamido)benzoate]
[1]; 0.5 µM
  death (decreased in hypoxia): reverts the decrease in death
[1]; 0.5 µM, 72 hours
  number of total apoptotic cells (reduced by hypoxia): capable of reverting said effect
[1]; hypoxia
  expression of the tumor suppressor p53: recovery of p53
[2]
  G1/S phase cycle arrest: did not cause a G1/S phase cycle blocking
[3]
  mTOR phosphorylation (fold change): ≤ 2
[4]; HCT116/p53-/- versus HCT116/p53+/+
  increase of resistance by loss of function of p53 (ratio of IC50 values in HCT116): 4.71 times
[4]; Homo sapiens, HCT-116, stimulated 72 hours, colonies counted after 10 days, read-out: survival IC50
  IC50: 16.5 µM
